Experimental data published in the supplement of paper PMC10307832.

What was measured:
Assay in all cases: relative viability (nuclei count vs DMSO), 5 days (fraction); higher = more cells survive
NCI-H2228 = system: NCI-H2228
Procedure, shortened: (§1)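 Each reported value is a median over duplicate plates. It expresses relative viability: treated-well nuclei count divided by vehicle-well nuclei count. Lung cancer cell lines in 1536-well plates were dosed by pin tool a day after seeding, alone with one drug or with a fixed anchor-drug dose plus five library-drug doses (not always all listed) in √10 steps, and nuclei were counted after 5 days.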

H3255 = system: H3255
Procedure, shortened: as §1

NCI-H1355 = system: NCI-H1355
Procedure, shortened: as §1

HCC-15 = system: HCC-15
Procedure, shortened: as §1

HCC-827 = system: HCC-827
Procedure, shortened: as §1

NCI-H1563 = system: NCI-H1563
Procedure, shortened: as §1

NCI-H2405 = system: NCI-H2405
Procedure, shortened: as §1

COR-L23 = system: COR-L23
Procedure, shortened: as §1

NCI-H322M = system: NCI-H322M
Procedure, shortened: as §1

EKVX = system: EKVX
Procedure, shortened: as §1

PC-14 = system: PC-14
Procedure, shortened: as §1

ABC-1 = system: ABC-1
Procedure, shortened: as §1

NCI-H1734 = system: NCI-H1734
Procedure, shortened: as §1

NCI-H1650 = system: NCI-H1650
Procedure, shortened: as §1

NCI-H520 = system: NCI-H520
Procedure, shortened: as §1

CAL-12T = system: CAL-12T
Procedure, shortened: as §1

RERF-LC-KJ = system: RERF-LC-KJ
Procedure, shortened: as §1

NCI-H1437 = system: NCI-H1437
Procedure, shortened: as §1

PC-3 [JPC-3] = system: PC-3 [JPC-3]
Procedure, shortened: as §1

SW 1573 = system: SW 1573
Procedure, shortened: as §1

NCI-H661 = system: NCI-H661
Procedure, shortened: as §1

## CC1(C)CCC(c2ccc(Cl)cc2)=C(CN2CCN(c3ccc(C(=O)NS(=O)(=O)c4ccc(N[C@H](CCN5CCOCC5)CSc5ccccc5)c(S(=O)(=O)C(F)(F)F)c4)cc3)CC2)C1 [Navitoclax] + CC(C)C[C@H](NC(=O)[C@H](Cc1ccccc1)NC(=O)c1cnccn1)B(O)O [Bortezomib] (partner 0.002 µM)
NCI-H2228; first compound 0.005 µM
  relative viability: 0.849
NCI-H2228; first compound 0.01581 µM
  relative viability: 1.33
NCI-H2228; first compound 0.05 µM
  relative viability: 0.726
NCI-H2228; first compound 0.1581 µM
  relative viability: 0.804
NCI-H2228; first compound 0.5 µM
  relative viability: 0.992
H3255; first compound 0.005 µM
  relative viability: 0.849
H3255; first compound 0.01581 µM
  relative viability: 1.09
H3255; first compound 0.05 µM
  relative viability: 0.836
H3255; first compound 0.1581 µM
  relative viability: 0.692
H3255; first compound 0.5 µM
  relative viability: 0.632
NCI-H1355; first compound 0.005 µM
  relative viability: 1.02
NCI-H1355; first compound 0.01581 µM
  relative viability: 1.24
NCI-H1355; first compound 0.05 µM
  relative viability: 1.06
NCI-H1355; first compound 0.1581 µM
  relative viability: 1.15
NCI-H1355; first compound 0.5 µM
  relative viability: 1.14
HCC-15; first compound 0.005 µM
  relative viability: 0.941
HCC-15; first compound 0.01581 µM
  relative viability: 0.995
HCC-15; first compound 0.05 µM
  relative viability: 0.85
HCC-15; first compound 0.1581 µM
  relative viability: 1.06
HCC-15; first compound 0.5 µM
  relative viability: 1
HCC-827; first compound 0.005 µM
  relative viability: 1.02
HCC-827; first compound 0.01581 µM
  relative viability: 1.21
HCC-827; first compound 0.05 µM
  relative viability: 0.87
HCC-827; first compound 0.1581 µM
  relative viability: 1.08
HCC-827; first compound 0.5 µM
  relative viability: 0.999
NCI-H1563; first compound 0.005 µM
  relative viability: 0.83
NCI-H1563; first compound 0.01581 µM
  relative viability: 1
NCI-H1563; first compound 0.05 µM
  relative viability: 0.748
NCI-H1563; first compound 0.1581 µM
  relative viability: 1.05
NCI-H1563; first compound 0.5 µM
  relative viability: 1.24
NCI-H2405; first compound 0.005 µM
  relative viability: 0.975
NCI-H2405; first compound 0.01581 µM
  relative viability: 1.09
NCI-H2405; first compound 0.05 µM
  relative viability: 0.816
NCI-H2405; first compound 0.1581 µM
  relative viability: 0.974
NCI-H2405; first compound 0.5 µM
  relative viability: 0.906
COR-L23; first compound 0.005 µM
  relative viability: 0.964
COR-L23; first compound 0.01581 µM
  relative viability: 1.03
COR-L23; first compound 0.05 µM
  relative viability: 1.15
COR-L23; first compound 0.1581 µM
  relative viability: 0.929
COR-L23; first compound 0.5 µM
  relative viability: 0.975
NCI-H322M; first compound 0.005 µM
  relative viability: 1.21
NCI-H322M; first compound 0.01581 µM
  relative viability: 1.33
NCI-H322M; first compound 0.05 µM
  relative viability: 1.38
NCI-H322M; first compound 0.1581 µM
  relative viability: 1.21
NCI-H322M; first compound 0.5 µM
  relative viability: 1.22
EKVX; first compound 0.005 µM
  relative viability: 1.01
EKVX; first compound 0.01581 µM
  relative viability: 1.01
EKVX; first compound 0.05 µM
  relative viability: 0.68
EKVX; first compound 0.1581 µM
  relative viability: 1.04
EKVX; first compound 0.5 µM
  relative viability: 0.963
PC-14; first compound 0.005 µM
  relative viability: 0.876
PC-14; first compound 0.01581 µM
  relative viability: 1
PC-14; first compound 0.05 µM
  relative viability: 0.934
PC-14; first compound 0.1581 µM
  relative viability: 0.865
PC-14; first compound 0.5 µM
  relative viability: 0.86
ABC-1; first compound 0.005 µM
  relative viability: 0.28
ABC-1; first compound 0.01581 µM
  relative viability: 0.286
ABC-1; first compound 0.05 µM
  relative viability: 0.265
ABC-1; first compound 0.1581 µM
  relative viability: 0.254
ABC-1; first compound 0.5 µM
  relative viability: 0.216
NCI-H1734; first compound 0.005 µM
  relative viability: 1.05
NCI-H1734; first compound 0.01581 µM
  relative viability: 1.12
NCI-H1734; first compound 0.1581 µM
  relative viability: 0.899
NCI-H1734; first compound 0.5 µM
  relative viability: 1.02
NCI-H1650; first compound 0.005 µM
  relative viability: 0.183
NCI-H1650; first compound 0.01581 µM
  relative viability: 0.213
NCI-H1650; first compound 0.05 µM
  relative viability: 0.165
NCI-H1650; first compound 0.1581 µM
  relative viability: 0.191
NCI-H1650; first compound 0.5 µM
  relative viability: 0.163
NCI-H520; first compound 0.005 µM
  relative viability: 0.577
NCI-H520; first compound 0.01581 µM
  relative viability: 0.743
NCI-H520; first compound 0.05 µM
  relative viability: 0.869
NCI-H520; first compound 0.1581 µM
  relative viability: 0.6
NCI-H520; first compound 0.5 µM
  relative viability: 0.712
CAL-12T; first compound 0.005 µM
  relative viability: 0.887
CAL-12T; first compound 0.01581 µM
  relative viability: 0.711
CAL-12T; first compound 0.05 µM
  relative viability: 0.989
CAL-12T; first compound 0.1581 µM
  relative viability: 0.853
CAL-12T; first compound 0.5 µM
  relative viability: 0.941
RERF-LC-KJ; first compound 0.005 µM
  relative viability: 1.07
RERF-LC-KJ; first compound 0.01581 µM
  relative viability: 1.14
RERF-LC-KJ; first compound 0.05 µM
  relative viability: 1
RERF-LC-KJ; first compound 0.1581 µM
  relative viability: 1.09
RERF-LC-KJ; first compound 0.5 µM
  relative viability: 1.35
NCI-H1437; first compound 0.005 µM
  relative viability: 0.503
NCI-H1437; first compound 0.01581 µM
  relative viability: 0.589
NCI-H1437; first compound 0.05 µM
  relative viability: 0.589
NCI-H1437; first compound 0.1581 µM
  relative viability: 0.495
NCI-H1437; first compound 0.5 µM
  relative viability: 0.47
PC-3 [JPC-3]; first compound 0.005 µM
  relative viability: 0.757
PC-3 [JPC-3]; first compound 0.01581 µM
  relative viability: 0.784
PC-3 [JPC-3]; first compound 0.05 µM
  relative viability: 0.732
PC-3 [JPC-3]; first compound 0.1581 µM
  relative viability: 0.874
PC-3 [JPC-3]; first compound 0.5 µM
  relative viability: 0.822
SW 1573; first compound 0.005 µM
  relative viability: 1.04
SW 1573; first compound 0.01581 µM
  relative viability: 1.24
SW 1573; first compound 0.05 µM
  relative viability: 0.895
SW 1573; first compound 0.1581 µM
  relative viability: 0.796
SW 1573; first compound 0.5 µM
  relative viability: 1.15
NCI-H661; first compound 0.005 µM
  relative viability: 0.844
NCI-H661; first compound 0.01581 µM
  relative viability: 0.873
NCI-H661; first compound 0.05 µM
  relative viability: 0.785
NCI-H661; first compound 0.1581 µM
  relative viability: 0.827
NCI-H661; first compound 0.5 µM
  relative viability: 0.668
